Results reported in article PMC12865133, “Macrocyclic Molecular Glues for the 14‐3‐3/ChREBP Interaction: Affinity and Cooperativity in an Inverse Relationship” (Angewandte Chemie (International Ed. in English), 2025).
Values belong to the compound of their own block, whether it stands above or below them.

Columns and labels:
14-3-3/ChREBP complex = target: T1, 14-3-3/ChREBP complex (Homo sapiens, UniProt P31946+Q9NP71); assay: 2D FA titrations fitted to thermodynamic cooperativity model; conditions: for α1 / α / Kd: 2D FA model fit; for α1: dimeric 14-3-3 model; for Kd: KDI; for cooperativity (α) factor: 2D FA, 14-3-3β titrated to FITC-labeled MG with varying ChREBP peptide, KD^II fixed 1.5 µM, mean of n = 2
T1 sequence (P31946 1-246): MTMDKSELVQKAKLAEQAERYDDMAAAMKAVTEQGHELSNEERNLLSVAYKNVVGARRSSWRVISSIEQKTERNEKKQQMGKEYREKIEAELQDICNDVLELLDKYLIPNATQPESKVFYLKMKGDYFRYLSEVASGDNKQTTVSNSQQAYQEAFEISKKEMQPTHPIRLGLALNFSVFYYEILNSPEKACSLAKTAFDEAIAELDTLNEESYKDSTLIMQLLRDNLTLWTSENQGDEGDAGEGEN
T1 sequence (Q9NP71 117-142 partner limits assumed): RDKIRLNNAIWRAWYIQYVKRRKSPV

14-3-3γ [1] = target: T2, 14-3-3γ (Homo sapiens, UniProt P61981); assay: Isothermal titration calorimetry, peptide titrated to 14-3-3γ; format: binding; conditions: ITC, 200 μM peptide titrated to 20 μM 14-3-3γ, mean ± SD, n=3; for ΔS: 25 mM HEPES pH 8.0, 100 mM NaCl, 10 mM MgCl2, 500 µM TCEP, 25 °C; for ΔG / ΔH: pH 8.0, 25 °C
T2 sequence (P61981 1-247): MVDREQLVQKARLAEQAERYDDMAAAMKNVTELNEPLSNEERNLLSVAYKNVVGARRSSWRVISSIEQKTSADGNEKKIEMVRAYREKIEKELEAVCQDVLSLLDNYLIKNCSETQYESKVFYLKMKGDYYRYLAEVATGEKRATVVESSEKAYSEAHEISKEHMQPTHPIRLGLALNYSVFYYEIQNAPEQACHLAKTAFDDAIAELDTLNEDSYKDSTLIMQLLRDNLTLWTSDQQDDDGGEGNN
Protocol: Final dialysis fluid from protein expression was frozen as 2 mL aliquots to serve as ITC buffer (25 mM HEPES pH 8.0, 100 mM NaCl, 10 mM MgCl2, 500 µM TCEP). 14-3-3γ and peptide were dissolved and diluted in this buffer to 20 μM and 200 μM, respectively. Samples were degassed for 10 min prior to measurement at 450 mmHg. The reference cell was filled with 300 µL degassed MilliQ and the sample cell was filled with 300 µL of peptide or protein mixture. Syringe was loaded with at least 200 µL protein or peptide sample. Measurements were performed on an Affinity ITC LV (TA instruments), with injection size set to 2 µL, stirring speed of 125 rpm and temperature at 25 ̊C. The baseline was automatically adjusted with NITPIC, analysis of data was done in SEDPHAT, and images were produced with GUSSI software. Data and errors represent mean ± SD, n=3 replicates.

14-3-3γ [2] = target: T2, 14-3-3γ; assay: Surface plasmon resonance, Twinstrep-tagged 14-3-3γ captured on StrepTactinXT chip; conditions: for KD, affinity fit: SPR steady-state 1:1 fit; for kon: pH 7.4, read-out: ka, kinetic fit
Protocol: The SPR experiments were performed at 25 °C using a Biacore X100 (Cytiva) and a 200 nm Strep-Tactin XT derivatized linear polycarboxylate hydrogel chip, medium charge density (XanTec Bioanalytics). All proteins and peptides were dissolved in fresh running buffer prepared with ultrapure water and filtered through a 0.2 μm filter (10 mM HEPES pH 7.4, 200 mM NaCl, 50 μM EDTA, 0.005% P20). First the surface was conditioned with a 1 min injection of 3 M Guanidine HCl. The Biacore X100 was primed with running buffer. […] Flow cell 1 was left blank as a reference surface. […] Between cycles of one multi-cycle measurement, no regeneration step was performed due to the complete dissociation of the analyte. […] The data collection rate of the instrument is 1 datapoint/sec. […] All parameters were fitted using global fitting, including the Rmax, because a single immobilization was used for all analyte concentrations. The RI was set constant at 0 RU. Next to kinetic fitting, the affinity fit was made using a 1:1 binding model by plotting the response (RU) at steady state over the analyte concentration (Fig. S2).

14-3-3β = target: T3, 14-3-3β (Homo sapiens, UniProt P31946); assay: FA titration of 14-3-3β to FITC-labeled macrocycle (EC50 used for selectivity assay); format: binding; conditions: 14-3-3β concentration equal to/around EC50 for FITC-labeled macrocycle (10 nM)
T3 construct: The full-length human 14-3-3β and γ proteins; made in house; host or cells: Escherichia coli BL21(DE3)
T3 sequence (P31946 1-246): T1 sequence (P31946 1-246)
Protocol: For the 2D titrations, 14-3-3β was titrated in a 2-fold dilution series (starting at 250 µM) to a mix of fluorescein-labeled macrocycle (5 nM) against varying fixed concentrations of ChREBP (2-fold dilution starting from 20 µM (replicate 1) or 10 µM (replicate 2)).
Dilution series were made in a polystyrene (non-binding) low-volume Corning Black Round Bottom 384-well plates (Corning 4514 or 4511). […] Wells containing 5 nm FITC-macrocycle were used to set as G-factor. All data were analyzed using Origin2023b and fitted using a four-parameter logistic model. Each measurement was performed in three independent experiments.

14-3-3γ [3] = target: T2, 14-3-3γ; assay: Fluorescence Anisotropy protein titration of 14-3-3γ to FITC-labeled macrocycles; format: binding; conditions: FA, 14-3-3γ titrated (2-fold from 250 µM) to FITC-labeled peptide (10 nM in Fig. 2a, 5 nM in method), 10 mM HEPES pH 7.4, 150 mM NaCl, 0.1% Tween20, 0.1% BSA, rt, mean ± SD, n = 3
Protocol: Wells containing 5 nm FITC-macrocycle were used to set as G-factor. All data were analyzed using Origin2023b and fitted using a four-parameter logistic model. Each measurement was performed in three independent experiments.

[4] = tested on: 14-3-3β/macrocycle complex; assay: FA selectivity assay, acetylated 14-3-3 client peptides titrated to 14-3-3β/macrocycle complex; format: binding, human; conditions: acetylated client peptide titrated from 100 μM to 14-3-3β (at EC50) and FITC-labeled macrocycle (10 nM), n = 3
[5] = replicate 1 (ChREBP from 20 μM)
[6] = replicate 2 (ChREBP from 10 μM)
[7] = SPR, 1:1 model, 25 °C, 10 mM HEPES pH 7.4, 200 mM NaCl, replicate 1
[8] = SPR, 1:1 model, 25 °C, pH 7.4, average ± SD, n=2, SD
[9] = SPR, 1:1 model, 25 °C, pH 7.4, replicate 1
[10] = SPR, 1:1 model, 25 °C, pH 7.4, replicate 2

α1 (14-3-3/ChREBP complex; replicate 1): 18.8
α1 (14-3-3/ChREBP complex; replicate 2): 8.3
α (14-3-3/ChREBP complex; [5]): 46
α (14-3-3/ChREBP complex; [6]): 61
Compound: NCCCC[C@@H](C(=O)NCCC(=O)N[C@@H](CCCCNC(=S)Nc1ccc2c(c1)C(=O)OC21c2ccc(O)cc2Oc2cc(O)ccc21)C(N)=O)N1CCc2cn(nn2)-c2ccc(cc2)C[C@H](NC(=O)[C@@H](N)COP(=O)(O)O)C(=O)N[C@@H](CO)CC(=O)NCCC(=O)N[C@@H](Cc2ccc([N+](=O)[O-])cc2)C1=O [Macrocycle 2]

ΔS (14-3-3γ [1]): 5.9 ± 0.89 cal/(mol·K)
ΔG (14-3-3γ [1]): -9.24 ± 0.028 kcal/mol
ΔH (14-3-3γ [1]): -7.5 ± 0.70 kcal/mol
α1 (14-3-3/ChREBP complex; replicate 1): 11.7
α1 (14-3-3/ChREBP complex; replicate 2): 11
α (14-3-3/ChREBP complex; [5]): 12.3
α (14-3-3/ChREBP complex; [6]): 11
Kd (14-3-3γ [2]; KD, kinetic fit, SPR, 1:1 model, 25 °C, pH 7.4, average ± SD, n=2, SD): 230 nM
KD, affinity fit (14-3-3γ [2]; 25 °C, pH 7.4, replicate 1): 228 nM
KD, affinity fit (14-3-3γ [2]; 25 °C, pH 7.4, replicate 2): 253 nM
ka, kinetic fit (14-3-3γ [2]; [7]): 629000 M⁻¹ s⁻¹
kd, kinetic fit (14-3-3γ [2]; [8]): 0.13 ± 0.01 s⁻¹
KD, kinetic fit (14-3-3γ [2]; [9]): 220 nM
kd, kinetic fit (14-3-3γ [2]; [9]): 0.1384 s⁻¹
KD, kinetic fit (14-3-3γ [2]; [10]): 233 nM
ka, kinetic fit (14-3-3γ [2]; [10]): 556000 M⁻¹ s⁻¹
kd, kinetic fit (14-3-3γ [2]; [10]): 0.1296 s⁻¹
kon (14-3-3γ [2]; SD): 590000 M⁻¹ s⁻¹
Compound: NCCCC[C@@H](C(N)=O)N1CCCc2cn(nn2)-c2ccc(cc2)C[C@H](NC(=O)[C@@H](N)COP(=O)(O)O)C(=O)N[C@@H](CO)CC(=O)NCCC(=O)N[C@@H](Cc2ccc([N+](=O)[O-])cc2)C1=O [Macrocycle 3]

ΔS (14-3-3γ [1]): 2.9 ± 0.78 cal/(mol·K)
ΔG (14-3-3γ [1]): -8.15 ± 0.10 kcal/mol
ΔH (14-3-3γ [1]): -7.4 ± 0.44 kcal/mol
α1 (14-3-3/ChREBP complex; replicate 1): 11.8
α1 (14-3-3/ChREBP complex; replicate 2): 13.5
α (14-3-3/ChREBP complex; [5]): 42.5
α (14-3-3/ChREBP complex; [6]): 41.3
Kd (14-3-3/ChREBP complex; [5]): 5000 nM
Kd (14-3-3/ChREBP complex; [6]): 5000 nM
KD, affinity fit (14-3-3γ [2]; 25 °C, pH 7.4, replicate 1): 1180 nM
KD, affinity fit (14-3-3γ [2]; 25 °C, pH 7.4, replicate 2): 1130 nM
ka, kinetic fit (14-3-3γ [2]; [7]): 282000 M⁻¹ s⁻¹
kd, kinetic fit (14-3-3γ [2]; [8]): 0.31 ± 0.01 s⁻¹
KD, kinetic fit (14-3-3γ [2]; [9]): 1140 nM
kd, kinetic fit (14-3-3γ [2]; [9]): 0.3198 s⁻¹
KD, kinetic fit (14-3-3γ [2]; [10]): 1030 nM
ka, kinetic fit (14-3-3γ [2]; [10]): 290000 M⁻¹ s⁻¹
kd, kinetic fit (14-3-3γ [2]; [10]): 0.2988 s⁻¹
association rate (k on) fold increase compared to pepD (14-3-3γ [2]; SPR, 14-3-3γ): 3.5 fold
kon (14-3-3γ [2]; SD): 290000 M⁻¹ s⁻¹
Compound: NCCCC[C@@H](C(N)=O)N1CCCCc2cn(nn2)-c2ccc(cc2)C[C@H](NC(=O)[C@@H](N)COP(=O)(O)O)C(=O)N[C@@H](CO)CC(=O)NCCC(=O)N[C@@H](Cc2ccc([N+](=O)[O-])cc2)C1=O [Macrocycle 4]

α1 (14-3-3/ChREBP complex; replicate 1): 82.8
α1 (14-3-3/ChREBP complex; replicate 2): 85.4
α (14-3-3/ChREBP complex; [5]): 314
α (14-3-3/ChREBP complex; [6]): 363
cooperativity (α) factor (14-3-3/ChREBP complex): 339 ± 35
Compound: NCCCC[C@@H](C(=O)NCCC(=O)N[C@@H](CCCCNC(=S)Nc1ccc2c(c1)C(=O)OC21c2ccc(O)cc2Oc2cc(O)ccc21)C(N)=O)N1Cc2cn(nn2)-c2ccc(cc2)C[C@H](NC(=O)[C@@H](N)COP(=O)(O)O)C(=O)N[C@@H](CO)CC(=O)NCCC(=O)N[C@@H](Cc2ccc([N+](=O)[O-])cc2)C1=O [Macrocycle F1]

EC50 (14-3-3β): 7000 nM
Compound: NCCCC[C@@H](C(=O)NCCC(=O)N[C@@H](CCCCNC(=S)Nc1ccc2c(c1)C(=O)OC21c2ccc(O)cc2Oc2cc(O)ccc21)C(N)=O)N1CCc2cn(nn2)-c2ccc(cc2)C[C@H](NC(=O)[C@@H](N)COP(=O)(O)O)C(=O)N[C@@H](CO)CC(=O)NCCC(=O)N[C@@H](Cc2ccc([N+](=O)[O-])cc2)C1=O [Macrocycle F2]

Kd (14-3-3γ [3]): 230 ± 60 nM
cooperativity (α) factor (14-3-3/ChREBP complex): 12 ± 1
Compound: NCCCC[C@@H](C(=O)NCCC(=O)N[C@@H](CCCCNC(=S)Nc1ccc2c(c1)C(=O)OC21c2ccc(O)cc2Oc2cc(O)ccc21)C(N)=O)N1CCCc2cn(nn2)-c2ccc(cc2)C[C@H](NC(=O)[C@@H](N)COP(=O)(O)O)C(=O)N[C@@H](CO)CC(=O)NCCC(=O)N[C@@H](Cc2ccc([N+](=O)[O-])cc2)C1=O [Macrocycle F3]

EC50 (14-3-3β): 2000 nM
cooperativity (α) factor (14-3-3/ChREBP complex): 42 ± 1
Compound: NCCCC[C@@H](C(=O)NCCC(=O)N[C@@H](CCCCNC(=S)Nc1ccc2c(c1)C(=O)OC21c2ccc(O)cc2Oc2cc(O)ccc21)C(N)=O)N1CCCCc2cn(nn2)-c2ccc(cc2)C[C@H](NC(=O)[C@@H](N)COP(=O)(O)O)C(=O)N[C@@H](CO)CC(=O)NCCC(=O)N[C@@H](Cc2ccc([N+](=O)[O-])cc2)C1=O [Macrocycle F4]

Compound: Ac-RDKIRLNNAIWRAWYIQYVKRRKSPV-NH2 [ChREBP, acetylated ChREBP peptide purchased from GenScript, 14-3-3 client peptide]
effect of client peptide on 14-3-3β/macrocycle complex [4]: Stabilization
